From PMC6125784 (Cell chemical biology, 2018)

Target: T1, CobL (Rhodobacter capsulatus, UniProt D5AV04)
T1 sequence (D5AV04 1-396): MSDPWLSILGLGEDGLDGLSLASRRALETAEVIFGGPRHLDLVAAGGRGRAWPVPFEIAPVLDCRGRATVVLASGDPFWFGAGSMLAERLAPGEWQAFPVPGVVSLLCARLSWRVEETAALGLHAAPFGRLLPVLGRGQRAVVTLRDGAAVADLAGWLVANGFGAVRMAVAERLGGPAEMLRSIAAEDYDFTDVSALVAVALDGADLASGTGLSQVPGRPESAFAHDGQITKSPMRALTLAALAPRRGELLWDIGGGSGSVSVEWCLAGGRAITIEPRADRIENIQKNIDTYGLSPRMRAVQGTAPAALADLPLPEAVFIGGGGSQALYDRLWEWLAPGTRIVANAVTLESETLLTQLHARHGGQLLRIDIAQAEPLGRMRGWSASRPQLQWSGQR
Experiment: C5 alkylation coupled to CobH, UV-visible and HPLC-MS
Type: biochemical
Settings: CobH 30 uM, pH 8.0, 28°C

C=CC[S+](CC[C@H](N)C(=O)O)C[C@H]1O[C@@H](n2cnc3c(N)ncnc32)[C@H](O)[C@@H]1O (some centres unmarked) [allyl-SAM]
C5 alkylation coupled to CobH, UV-visible and HPLC-MS (precorrin-7 60 uM): When precorrin-7 was incubated with CobL, CobH, and allyl-SAM the color

CC1=C(CCC(=O)O)C2=N[C@@]1(C)CC1=C(CCC(=O)O)[C@](C)(CC(=O)O)C(=N1)/C=C1\N[C@@](C)([C@@H]3N=C(C2C)[C@](C)(CCC(=O)O)[C@H]3CC(=O)O)[C@@](C)(CC(=O)O)[C@@H]1CCC(=O)O (some centres unmarked) [precorrin-7]
C5 alkylation coupled to CobH, UV-visible and HPLC-MS (allyl-SAM 170 uM): When precorrin-7 was incubated with CobL, CobH, and allyl-SAM the color
